Test results published in ChEMBL document CHEMBL4725308, “MK-5204: An orally active β-1,3-glucan synthesis inhibitor” (Bioorg Med Chem Lett, 2020).
≈ marks a conversion by molar mass, not a printed value.

Columns and labels:
[1] = Oral bioavailability in mouse; type: ADME, organism-based; conditions: in vivo
[2] = test system: Candida albicans; assay: Antifungal activity against Candida albicans MY1055 infected in DBA/2 mouse model assessed as log change in colony forming units in kidney at 25 mg/kg, po bid for 2 days and measured after 4 days by TOKA; type: functional; conditions: time 2 day
[3] = test system: Candida albicans; assay: Antifungal activity against Candida albicans MY1055 assessed as fungal growth inhibition measured after 24 hrs in presence of mouse serum by liquid microdilution method; type: functional
[4] = test system: Candida albicans; assay: Antifungal activity against Candida albicans MY1055 infected in DBA mouse model assessed as log change in colony forming units in kidney at 12.5 mg/kg, po bid for 2 days and measured after 4 days by TOKA; type: functional; conditions: time 2 day
[5] = test system: Candida albicans; assay: Antifungal activity against Candida albicans MY1055 assessed as fungal growth inhibition measured after 24 hrs by liquid microdilution method; type: functional
[6] = test system: Candida albicans; assay: Antifungal activity against Candida albicans MY1055 infected in DBA/2 mouse model assessed as log change in colony forming units in kidney at 6.5 mg/kg, po bid for 2 days and measured after 4 days by TOKA; type: functional; conditions: time 2 day
[7] = test system: Aspergillus fumigatus; assay: Antifungal activity against Aspergillus fumigatus MF5668 assessed as fungal growth inhibition measured after 24 hrs by liquid microdilution method; type: functional; conditions: read-out: MEC
[8] = Inhibition of beta-1,3-glucan synthase in Candida albicans MY1055 microsomal membrane using UDP-[3H]-glucose as substrate incubated for 2 hrs in presence of UTP by radioactivity-based assay; type: cell membranes

bioavailability [1] [%] | MIC [3] [µg/mL] | MIC [5] [µg/mL] | IC50 [8] [µg/mL] | SMILES | Activity [2] [log CFU] | Activity [4] [log CFU] | Activity [6] [log CFU] | minimal effective concentration [7] [µg/mL]
21 | 16 | 0.5 (≈ 0.704 µM) | 0.015 | CC(C)[C@@H](C)[C@@]1(C)CC[C@]2(C)[C@H]3CC[C@@H]4[C@@]5(COC[C@]4(C)[C@@H](OC[C@@](C)(C(C)C)N(C)C)[C@H](n4ncnc4C(N)=O)C5)C3=CC[C@@]2(C)[C@@H]1C(=O)O | -1.8 | -1.4 | -0.3 | < 0.03
13 | 16 | 0.25 (≈ 0.352 µM) | 0.008 | CCNC(=O)c1ncnn1[C@@H]1C[C@@]23COC[C@@](C)([C@@H]2CC[C@H]2C3=CC[C@@]3(C)[C@H](C(=O)O)[C@@](C)([C@H](C)C(C)C)CC[C@]23C)[C@H]1OC[C@](C)(N)C(C)C | -2.8 | -1.4 | -0.8 | < 0.03
 | 32 | 0.5 (≈ 0.715 µM) | 0.009 | CCSc1ncnn1[C@@H]1C[C@@]23COC[C@@](C)([C@@H]2CC[C@H]2C3=CC[C@@]3(C)[C@H](C(=O)O)[C@@](C)([C@H](C)C(C)C)CC[C@]23C)[C@H]1OC[C@](C)(N)C(C)C |  |  |  | < 0.03
3 | 16 | 0.125 (≈ 0.183 µM) | 0.007 | CCC(N)(CC)CO[C@H]1[C@H](n2ncnc2C(N)=O)C[C@@]23COC[C@@]1(C)[C@@H]2CC[C@H]1C3=CC[C@@]2(C)[C@H](C(=O)O)[C@@](C)([C@H](C)C(C)C)CC[C@]12C | -1.9 | -0.6 | -0.2 | < 0.03
 | 8 | 0.125 (≈ 0.188 µM) | 0.006 | CC(C)[C@@H](C)[C@@]1(C)CC[C@]2(C)[C@H]3CC[C@@H]4[C@@]5(COC[C@]4(C)[C@@H](OC[C@](C)(N)C(C)C)[C@H](n4ncnc4C#N)C5)C3=CC[C@@]2(C)[C@@H]1C(=O)O | -1.1 | 0 | -0.9 | < 0.03
 | > 32 | 8 (≈ 11.9 µM) | 0.019 | CC(C)[C@@H](C)[C@@]1(C)CC[C@]2(C)[C@H]3CC[C@@H]4[C@@]5(COC[C@]4(C)[C@@H](OC[C@](C)(N)C(C)C)[C@H](n4cnc(Cl)n4)C5)C3=CC[C@@]2(C)[C@@H]1C(=O)O |  |  |  | 0.25
5 | 8 | 0.25 (≈ 0.359 µM) | 0.005 | CN[C@@](C)(CO[C@H]1[C@H](n2ncnc2C(N)=O)C[C@@]23COC[C@@]1(C)[C@@H]2CC[C@H]1C3=CC[C@@]2(C)[C@H](C(=O)O)[C@@](C)([C@H](C)C(C)C)CC[C@]12C)C(C)C | -1.2 | -0.5 | -0.4 | < 0.03
 | 8 | 1 (≈ 1.37 µM) | 0.005 | CCS(=O)(=O)c1ncnn1[C@@H]1C[C@@]23COC[C@@](C)([C@@H]2CC[C@H]2C3=CC[C@@]3(C)[C@H](C(=O)O)[C@@](C)([C@H](C)C(C)C)CC[C@]23C)[C@H]1OC[C@](C)(N)C(C)C |  |  |  | < 0.03
 | > 32 | 32 (≈ 47.5 µM) | > 1 | CC(C)[C@@H](C)[C@@]1(C)CC[C@]2(C)[C@H]3CC[C@@H]4[C@@]5(COC[C@]4(C)[C@@H](OC[C@](C)(N)C(C)C)[C@H](n4cnnc4Cl)C5)C3=CC[C@@]2(C)[C@@H]1C(=O)O |  |  |  | 16

Second part, the molecule before the results:

SMILES | bioavailability [1] [%] | MIC [3] [µg/mL] | MIC [5] [µg/mL] | IC50 [8] [µg/mL] | Activity [2] [log CFU] | Activity [4] [log CFU] | Activity [6] [log CFU] | minimal effective concentration [7] [µg/mL]
CC(C)[C@@H](C)[C@@]1(C)CC[C@]2(C)[C@H]3CC[C@@H]4[C@@]5(COC[C@]4(C)[C@@H](OC[C@](C)(N)C(C)C)[C@H](n4ncnc4S(N)(=O)=O)C5)C3=CC[C@@]2(C)[C@@H]1C(=O)O |  | 8 | 0.25 (≈ 0.348 µM) | 0.006 | -0.7 | -0.8 | -0.8 | < 0.03
CC(C)[C@@H](C)[C@@]1(C)CC[C@]2(C)[C@H]3CC[C@@H]4[C@@]5(COC[C@]4(C)[C@@H](OC[C@](C)(N)C(C)C)[C@H](n4ncnc4N)C5)C3=CC[C@@]2(C)[C@@H]1C(=O)O |  | 16 | 0.25 (≈ 0.382 µM) | 0.01 |  |  |  | 0.125
COC(=O)c1ncnn1[C@@H]1C[C@@]23COC[C@@](C)([C@@H]2CC[C@H]2C3=CC[C@@]3(C)[C@H](C(=O)O)[C@@](C)([C@H](C)C(C)C)CC[C@]23C)[C@H]1OC[C@](C)(N)C(C)C |  | 32 | 1 (≈ 1.43 µM) | 0.004 |  |  |  | 0.125
CC(C)[C@@H](C)[C@@]1(C)CC[C@]2(C)[C@H]3CC[C@@H]4[C@@]5(COC[C@]4(C)[C@@H](OC[C@](C)(N)C(C)C)[C@H](n4ncnc4I)C5)C3=CC[C@@]2(C)[C@@H]1C(=O)O |  | 16 | 0.5 (≈ 0.654 µM) | 0.005 |  |  |  | < 0.03
CCN[C@@](C)(CO[C@H]1[C@H](n2ncnc2C(N)=O)C[C@@]23COC[C@@]1(C)[C@@H]2CC[C@H]1C3=CC[C@@]2(C)[C@H](C(=O)O)[C@@](C)([C@H](C)C(C)C)CC[C@]12C)C(C)C | 17 | 16 | 0.25 (≈ 0.352 µM) | 0.011 | -1.8 | -1.1 | -1.1 | < 0.03
CC(C)[C@@H](C)[C@@]1(C)CC[C@]2(C)[C@H]3CC[C@@H]4[C@@]5(COC[C@]4(C)[C@@H](OC[C@](C)(N)C(C)C)[C@H](n4ncnc4Cl)C5)C3=CC[C@@]2(C)[C@@H]1C(=O)O | 9 | 8 | 0.06 (≈ 0.0891 µM) | 0.003 | -1.9 | -2.2 | -1.2 | < 0.03
CC(C)[C@@H](C)[C@@]1(C)CC[C@]2(C)[C@H]3CC[C@@H]4[C@@]5(COC[C@]4(C)[C@@H](OCC4(N)CCCCC4)[C@H](n4ncnc4C(N)=O)C5)C3=CC[C@@]2(C)[C@@H]1C(=O)O |  | 16 | 0.06 (≈ 0.0865 µM) | 0.01 | -1.8 | -1.8 | -0.5 | < 0.03
CC(C)[C@@H](C)[C@@]1(C)CC[C@]2(C)[C@H]3CC[C@@H]4[C@@]5(COC[C@]4(C)[C@@H](OC[C@](C)(N)C(C)C)[C@H](n4cnnc4C#N)C5)C3=CC[C@@]2(C)[C@@H]1C(=O)O |  | > 32 | 16 (≈ 24.1 µM) | > 1 |  |  |  | 8
CCCN[C@@](C)(CO[C@H]1[C@H](n2ncnc2C(N)=O)C[C@@]23COC[C@@]1(C)[C@@H]2CC[C@H]1C3=CC[C@@]2(C)[C@H](C(=O)O)[C@@](C)([C@H](C)C(C)C)CC[C@]12C)C(C)C | 19 | 32 | 0.5 (≈ 0.691 µM) | 0.015 | -1.9 | -0.8 | -0.7 | < 0.03
CC(C)[C@@H](C)[C@@]1(C)CC[C@]2(C)[C@H]3CC[C@@H]4[C@@]5(COC[C@]4(C)[C@@H](OC[C@](C)(N)C(C)C)[C@H](n4cncn4)C5)C3=CC[C@@]2(C)[C@@H]1C(=O)O |  | 4 | 0.25 (≈ 0.391 µM) | 0.007 |  |  |  | < 0.03
CNC(=O)c1ncnn1[C@@H]1C[C@@]23COC[C@@](C)([C@@H]2CC[C@H]2C3=CC[C@@]3(C)[C@H](C(=O)O)[C@@](C)([C@H](C)C(C)C)CC[C@]23C)[C@H]1OC[C@](C)(N)C(C)C | 5 | 8 | 0.125 (≈ 0.18 µM) | 0.004 | -2.6 | -1.6 | -0.6 | < 0.03
CCCNC(=O)c1ncnn1[C@@H]1C[C@@]23COC[C@@](C)([C@@H]2CC[C@H]2C3=CC[C@@]3(C)[C@H](C(=O)O)[C@@](C)([C@H](C)C(C)C)CC[C@]23C)[C@H]1OC[C@](C)(N)C(C)C | 33 | 16 | 0.5 (≈ 0.691 µM) | 0.007 | -2.2 | -1.6 | -1.1 | < 0.03
CC(C)[C@@H](C)[C@@]1(C)CC[C@]2(C)[C@H]3CC[C@@H]4[C@@]5(COC[C@]4(C)[C@@H](OCC4(N)CCOCC4)[C@H](n4ncnc4C(N)=O)C5)C3=CC[C@@]2(C)[C@@H]1C(=O)O |  | 2 | 0.125 (≈ 0.18 µM) | 0.008 |  |  |  | < 0.03
CC(C)[C@@H](C)[C@@]1(C)CC[C@]2(C)[C@H]3CC[C@@H]4[C@@]5(COC[C@]4(C)[C@@H](OC[C@](C)(N)C(C)C)[C@H](n4cnc(C#N)n4)C5)C3=CC[C@@]2(C)[C@@H]1C(=O)O |  | > 32 | 8 (≈ 12 µM) | 0.334 |  |  |  | 4
